Consider five compounds from PubChem BioAssay AID1918993 (Molecular Pharmacology Branch, DTP, NCI, 2023).

The test deals with 233499-124-R-J3-PDC complex spheroid growth. Description: Anticancer human tumor 233499-124-R-J3-PDC patient-derived colon adenocarcinoma cell line growth inhibition [AhR]. The conditions noted are these: for viability, T/C: stronger effect = lower value. A digest of the protocol:
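Complex tumor spheroids co-cultured with HUVEC and human MSC stroma; AhR antagonists tested in combination with standard-of-care and investigational agents. Top concentration at or near clinical Cmax (else 10 microM), half-log dilutions; growth expressed as percent test/control.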

Where [1] appears, read: curve of first compound, second compound 0.1 µM.
Setting [2] is: curve of first compound, second compound 0.316 µM.
[3] abbreviates: curve of first compound, second compound 1 µM.
Setting [4] is: curve of first compound, second compound 3.16 µM.
[5] abbreviates: curve of first compound, second compound 10 µM.
The mark [6] stands for this setting: second compound 0.1 µM, first compound 0.0316 µM.
[7] abbreviates: second compound 0.1 µM, first compound 0.1 µM.
[8] abbreviates: second compound 0.316 µM, first compound 0.0316 µM.
The mark [9] stands for this setting: second compound 0.316 µM, first compound 0.1 µM.
Where [10] appears, read: second compound 1 µM, first compound 0.0316 µM.
Where [11] appears, read: second compound 1 µM, first compound 0.1 µM.
Where [12] appears, read: second compound 3.16 µM, first compound 0.0316 µM.
[13] abbreviates: second compound 3.16 µM, first compound 0.1 µM.
The mark [14] stands for this setting: second compound 10 µM, first compound 0.0316 µM.
[15] abbreviates: second compound 10 µM, first compound 0.1 µM.

Several values for one entry are separate records, joined by “and”; a condition that tells them apart may be missing. Identical values can stand only once. A value given as a limit tells only on which side of the number the result lay.
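Note: spheroids exposed to agents for seven days before reading.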

In the case of `CCN(c1cc(-c2ccc(CN3CCOCC3)cc2)cc(C(=O)NCc2c(C)cc(C)[nH]c2=O)c1C)C1CCOCC1` + Cc1ccccc1N=Nc1ccc(NC(=O)c2ccnn2C)c(C)c1, the concentration for half-maximal inhibition (IC50) was above 3 µM under setting [1]; above 3 µM under setting [2]; above 3 µM under setting [3]; above 3 µM under setting [4]; above 3 µM under setting [5]. For the same compound, the viability, T/C by setting is: (second compound 0.1 µM, first compound 0.00949 µM) 99.3%; (second compound 0.1 µM, first compound 0.03 µM) 98%; (second compound 0.1 µM, first compound 0.0949 µM) 95.1%; (second compound 0.1 µM, first compound 0.3 µM) 97.1%; (second compound 0.1 µM, first compound 0.949 µM) 97.2%; (second compound 0.1 µM, first compound 3 µM) 102%. Further, the viability, T/C runs as follows: (second compound 0.316 µM, first compound 0.00949 µM) 88%; (second compound 0.316 µM, first compound 0.03 µM) 95.8%; (second compound 0.316 µM, first compound 0.0949 µM) 100%; (second compound 0.316 µM, first compound 0.3 µM) 95.3%; (second compound 0.316 µM, first compound 0.949 µM) 98.3%; (second compound 0.316 µM, first compound 3 µM) 96.6%. The viability, T/C was 107% (second compound 1 µM, first compound 0.00949 µM); 97.6% (second compound 1 µM, first compound 0.03 µM); 104% (second compound 1 µM, first compound 0.0949 µM); 93.1% (second compound 1 µM, first compound 0.3 µM); 92.3% (second compound 1 µM, first compound 0.949 µM); 100% (second compound 1 µM, first compound 3 µM). Moreover, the viability, T/C is, setting by setting: (second compound 3.16 µM, first compound 0.00949 µM) 95.1%; (second compound 3.16 µM, first compound 0.03 µM) 93.9%; (second compound 3.16 µM, first compound 0.0949 µM) 105%; (second compound 3.16 µM, first compound 0.3 µM) 91.7%; (second compound 3.16 µM, first compound 0.949 µM) 92.6%; (second compound 3.16 µM, first compound 3 µM) 93.7%. Besides, the viability, T/C was 101% (second compound 10 µM, first compound 0.00949 µM); 96.1% (second compound 10 µM, first compound 0.03 µM); 91.8% (second compound 10 µM, first compound 0.0949 µM); 92.7% (second compound 10 µM, first compound 0.3 µM); 93.9% (second compound 10 µM, first compound 0.949 µM); 99.5% (second compound 10 µM, first compound 3 µM).
As for `Nc1ccccc1NC(=O)c1ccc(CNC(=O)OCc2cccnc2)cc1`, the viability, T/C (compound 0.0316 µM) was 91.6% and 84.4% and 104%; the viability, T/C (compound 0.1 µM) was 97.2% and 106% and 99.6%; the viability, T/C (compound 0.316 µM) was 105% and 112% and 109%; the viability, T/C (compound 1 µM) is 98% and 113% and 100%; the viability, T/C (compound 3.16 µM) is 43.9% and 84.1% and 51.4%; the viability, T/C (compound 10 µM) was 5.82% and 10.2% and 8.69%. The half-inhibitory concentration (IC50) (curve of compound) was 2.78 µM and 5.37 µM and 3.28 µM.
Turning to `CC[C@@]1(O)C(=O)OCc2c1cc1n(c2=O)Cc2cc3c(CN(C)C)c(O)ccc3nc2-1` + Cc1cncc(-c2nc(NCCc3c[nH]c4ccccc34)c3ncn(C(C)C)c3n2)c1, the IC50 was above 0.1 µM under setting [1]; above 0.1 µM under setting [2]; above 0.1 µM under setting [3]; above 0.1 µM under setting [4]; below 0.000316 µM under setting [5]. Besides, the viability, T/C is, setting by setting: (second compound 0.1 µM, first compound 0.000316 µM) 101%; (second compound 0.1 µM, first compound 0.001 µM) 94.2%; (second compound 0.1 µM, first compound 0.00316 µM) 92.1%; (second compound 0.1 µM, first compound 0.01 µM) 94.6%; under setting [6], 97.6%; under setting [7], 92.6%. The viability, T/C (second compound 0.316 µM, first compound 0.000316 µM) is 92.1%; the viability, T/C (second compound 0.316 µM, first compound 0.001 µM) was 82.3%; the viability, T/C (second compound 0.316 µM, first compound 0.00316 µM) was 84.4%; the viability, T/C (second compound 0.316 µM, first compound 0.01 µM) is 78.5%; the viability, T/C under setting [8] was 101%; the viability, T/C under setting [9] was 69.6%. In addition, the viability, T/C runs as follows: (second compound 1 µM, first compound 0.000316 µM) 84.1%; (second compound 1 µM, first compound 0.001 µM) 76%; (second compound 1 µM, first compound 0.00316 µM) 77.8%; (second compound 1 µM, first compound 0.01 µM) 70.3%; under setting [10], 85.2%; under setting [11], 68%. Also, the viability, T/C by setting is: (second compound 3.16 µM, first compound 0.000316 µM) 87.8%; (second compound 3.16 µM, first compound 0.001 µM) 71.5%; (second compound 3.16 µM, first compound 0.00316 µM) 91%; (second compound 3.16 µM, first compound 0.01 µM) 88.6%; under setting [12], 83.3%; under setting [13], 63.2%. In addition, the viability, T/C was 8.54% (second compound 10 µM, first compound 0.000316 µM); 8.37% (second compound 10 µM, first compound 0.001 µM); 34.9% (second compound 10 µM, first compound 0.00316 µM); 24% (second compound 10 µM, first compound 0.01 µM); 12.9% under setting [14]; 16.9% under setting [15].
For the compound `O=C(C=Cc1cccc(S(=O)(=O)Nc2ccccc2)c1)NO` + Cc1ccccc1N=Nc1ccc(NC(=O)c2ccnn2C)c(C)c1, the half-inhibitory concentration (IC50) under setting [1] stood at 6.62 µM; the half-inhibitory concentration (IC50) under setting [2] was 5.96 µM; the IC50 under setting [3] stood at 6.36 µM; the 50% inhibitory concentration (IC50) under setting [4] came to 5.56 µM; the IC50 under setting [5] was determined as 4.22 µM. Besides, the viability, T/C by setting is: under setting [6], 98.3%; under setting [7], 97.5%; (second compound 0.1 µM, first compound 0.316 µM) 110%; (second compound 0.1 µM, first compound 1 µM) 139%; (second compound 0.1 µM, first compound 3.16 µM) 127%; (second compound 0.1 µM, first compound 10 µM) 14%. The viability, T/C was 95.2% under setting [8]; 103% under setting [9]; 127% (second compound 0.316 µM, first compound 0.316 µM); 126% (second compound 0.316 µM, first compound 1 µM); 104% (second compound 0.316 µM, first compound 3.16 µM); 5.9% (second compound 0.316 µM, first compound 10 µM). The viability, T/C is, setting by setting: under setting [10], 110%; under setting [11], 102%; (second compound 1 µM, first compound 0.316 µM) 116%; (second compound 1 µM, first compound 1 µM) 126%; (second compound 1 µM, first compound 3.16 µM) 111%; (second compound 1 µM, first compound 10 µM) 10.7%. Further, the viability, T/C was 102% under setting [12]; 102% under setting [13]; 105% (second compound 3.16 µM, first compound 0.316 µM); 129% (second compound 3.16 µM, first compound 1 µM); 89.6% (second compound 3.16 µM, first compound 3.16 µM); 9.1% (second compound 3.16 µM, first compound 10 µM). Besides, the viability, T/C under setting [14] was 94.4%; the viability, T/C under setting [15] was 101%; the viability, T/C (second compound 10 µM, first compound 0.316 µM) is 98.5%; the viability, T/C (second compound 10 µM, first compound 1 µM) is 94.1%; the viability, T/C (second compound 10 µM, first compound 3.16 µM) was 65.4%; the viability, T/C (second compound 10 µM, first compound 10 µM) is 3.82%.
Take `O=C(C=Cc1cccc(S(=O)(=O)Nc2ccccc2)c1)NO`: the viability, T/C reads like this: (compound 0.0316 µM) 98.2% and 96.2% and 89.6%; (compound 0.1 µM) 112% and 105% and 102%; (compound 0.316 µM) 97.2% and 109% and 111%; (compound 1 µM) 115% (2×) and 109%; (compound 3.16 µM) 95.7% and 101% and 82.7%; (compound 10 µM) 19.4% and 12.2% and 13.2%. Besides, where the note is “curve of compound”, the half-maximal inhibitory concentration (IC50) is 6.32 µM and 6.14 µM and 5.43 µM.

A word on the IC50: it is the concentration that gives 50% inhibition. A word on the viability, T/C: it is the result in the treated group divided by that in the control group, in per cent.
